Test results as given in PubChem BioAssay AID248 (DTP/NCI, 2004).
Several values for one entry are separate records, joined by “and”; a condition that tells them apart may be missing. Equal values may be shown once. Toxic doses and inconclusive results are not listed. Cut-off read from the data, not from the text of the source: active = T/C of 150% or more; inactive = T/C below 125%.

Test system: L1210 leukemia ip in BDF1 mice, survival T/C
Experiment: NCI In Vivo Anticancer Drug Screen. Data for tumor model L1210 Leukemia (intraperitoneal) in B6D2F1 (BDF1) mice
Settings: endpoint: mean survival time, higher = longer survival
Method in brief: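 Antitumor effect is assessed in tumor-bearing animals. Survival in the compound arm is compared with a vehicle-dosed control arm and expressed as their quotient.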

[1] = dose: 5.0 mg/kg/injection, schedule: Q01DX001 (ip), vehicle: saline
[2] = dose: 10.0 mg/kg/injection, schedule: Q01DX001 (ip), vehicle: saline
[3] = dose: 100.0 mg/kg/injection, schedule: Q04DX003 (ip), vehicle: saline with Tween-80
[4] = dose: 200.0 mg/kg/injection, schedule: Q04DX003 (ip), vehicle: saline with Tween-80
[5] = dose: 400.0 mg/kg/injection, schedule: Q04DX003 (ip), vehicle: saline with Tween-80
[6] = dose: 25.0 mg/kg/injection, schedule: Q04DX003 (ip), vehicle: Klucel (hydroxypropylcellulose) (HPC)
[7] = dose: 50.0 mg/kg/injection, schedule: Q04DX003 (ip), vehicle: Klucel (hydroxypropylcellulose) (HPC)
[8] = dose: 100.0 mg/kg/injection, schedule: Q04DX003 (ip), vehicle: Klucel (hydroxypropylcellulose) (HPC)
[9] = dose: 200.0 mg/kg/injection, schedule: Q01DX009 (ip), vehicle: saline with Tween-80
[10] = dose: 100.0 mg/kg/injection, schedule: Q04DX002 (ip), vehicle: Klucel (hydroxypropylcellulose) (HPC)
[11] = dose: 100.0 mg/kg/injection, schedule: Q04DX002 (ip), vehicle: saline with Tween-80
[12] = dose: 200.0 mg/kg/injection, schedule: Q04DX002 (ip), vehicle: saline with Tween-80
[13] = dose: 400.0 mg/kg/injection, schedule: Q04DX002 (ip), vehicle: saline with Tween-80
[14] = dose: 100.0 mg/kg/injection, schedule: Q01DX009 (ip), vehicle: Klucel (hydroxypropylcellulose) (HPC)
[15] = dose: 200.0 mg/kg/injection, schedule: Q01DX009 (ip), vehicle: Klucel (hydroxypropylcellulose) (HPC)
[16] = dose: 400.0 mg/kg/injection, schedule: Q01DX009 (ip), vehicle: Klucel (hydroxypropylcellulose) (HPC)

Measured: T/C

COc1cc(C)c(C=O)cc1OC
inactive: [1] 103 % of control | [2] 107 % of control | dose: 20.0 mg/kg/injection, schedule: Q01DX001 (ip), vehicle: saline 97 % of control | dose: 40.0 mg/kg/injection, schedule: Q01DX001 (ip), vehicle: saline 101 % of control | dose: 80.0 mg/kg/injection, schedule: Q01DX001 (ip), vehicle: saline 109 % of control

CC(C)CCCC(C)C1CCC2C3CC=C4CC(OCCCl)CCC4(C)C3CCC12C (centres undefined)
inactive: [3] 96 % of control | [4] 96 % of control | [5] 93 % of control

ClCc1ccc(CCl)c(Cl)c1
inactive: [6] 86 % of control | [7] 97 % of control | [8] 94 % of control

NC(=S)Nc1cccc(Cl)c1
inactive: [6] 96 % of control | [7] 100 % of control | [8] 106 % of control

Cc1ncc(C(=O)c2ccccc2)n1Cc1ccccc1
inactive: dose: 100.0 mg/kg/injection, schedule: Q01DX001 (ip), vehicle: saline with Tween-80 88 % of control | [3] 94 % of control | dose: 200.0 mg/kg/injection, schedule: Q01DX001 (ip), vehicle: saline with Tween-80 90 % of control | [9] 94 % of control and 107 % of control | [4] 92 % of control | dose: 400.0 mg/kg/injection, schedule: Q01DX001 (ip), vehicle: saline with Tween-80 95 % of control | dose: 400.0 mg/kg/injection, schedule: Q01DX009 (ip), vehicle: saline with Tween-80 96 % of control and 100 % of control | [5] 90 % of control

Brc1cnc(Br)s1
inactive: dose: 44.0 mg/kg/injection, schedule: Q04DX002 (ip), vehicle: Klucel (hydroxypropylcellulose) (HPC) 97 % of control | dose: 67.0 mg/kg/injection, schedule: Q04DX002 (ip), vehicle: Klucel (hydroxypropylcellulose) (HPC) 109 % of control | [10] 116 % of control | dose: 150.0 mg/kg/injection, schedule: Q04DX002 (ip), vehicle: Klucel (hydroxypropylcellulose) (HPC) 113 % of control

COCc1c(COc2ccc(Cl)cc2)n(C)c2ccccc12
inactive: [10] 101 % of control | dose: 200.0 mg/kg/injection, schedule: Q04DX002 (ip), vehicle: Klucel (hydroxypropylcellulose) (HPC) 92 % of control | dose: 400.0 mg/kg/injection, schedule: Q04DX002 (ip), vehicle: Klucel (hydroxypropylcellulose) (HPC) 99 % of control

NC(N)=NCCCOc1ccc([N+](=O)[O-])cc1
inactive: dose: 25.0 mg/kg/injection, schedule: Q04DX003 (ip), vehicle: saline 96 % of control | dose: 50.0 mg/kg/injection, schedule: Q04DX003 (ip), vehicle: saline 100 % of control | [3] 101 % of control | dose: 100.0 mg/kg/injection, schedule: Q04DX003 (ip), vehicle: saline 94 % of control

c1ccc2c(c1)cc1ccc3cccc4ncc2c1c34
inactive: [3] 86 % of control | [4] 96 % of control | [5] 88 % of control

Cc1noc(NS(=O)(=O)c2ccc(N=NC3SC(=S)NC3=O)cc2)c1C (centres undefined)
inactive: dose: 75.0 mg/kg/injection, schedule: Q01DX001 (ip), vehicle: saline 95 % of control | dose: 150.0 mg/kg/injection, schedule: Q01DX001 (ip), vehicle: saline 98 % of control | dose: 300.0 mg/kg/injection, schedule: Q01DX001 (ip), vehicle: saline 101 % of control

O=S1(=O)C2C=CCC1C(O)CC2 (centres undefined)
inactive: dose: 100.0 mg/kg/injection, schedule: Q01DX009 (ip), vehicle: saline 101 % of control | dose: 200.0 mg/kg/injection, schedule: Q01DX009 (ip), vehicle: saline 99 % of control | dose: 400.0 mg/kg/injection, schedule: Q01DX009 (ip), vehicle: saline 101 % of control

CCCCCCCCCCCC1CCCC2CCCCC12 (centres undefined)
inactive: [11] 91 % of control | [12] 91 % of control | [13] 100 % of control

O=C1OC2C(Br)CC(Br)CC2C=C1c1ccc([N+](=O)[O-])cc1 (centres undefined)
inactive: [11] 90 % of control | [12] 90 % of control | [13] 93 % of control

O=P(Cc1ccccc1)(Oc1ccccc1)Oc1ccccc1
inactive: [14] 91 % of control | [15] 94 % of control | [16] 91 % of control

CSc1ccc(OC(=O)Nc2ccc(C)c([N+](=O)[O-])c2)cc1C
inactive: dose: 100.0 mg/kg/injection, schedule: Q01DX009 (ip), vehicle: saline with Tween-80 89 % of control | [9] 89 % of control

O=C(NCCCCCCNC(=O)Nc1ccc(C2=NCCCN2)cc1)Nc1ccc(C2=NCCCN2)cc1
inactive: dose: 6.25 mg/kg/injection, schedule: Q01DX Z (ip), vehicle: carboxymethylcellulose (CMC) 97 % of control | dose: 12.5 mg/kg/injection, schedule: Q01DX Z (ip), vehicle: carboxymethylcellulose (CMC) 97 % of control | dose: 25.0 mg/kg/injection, schedule: Q01DX Z (ip), vehicle: carboxymethylcellulose (CMC) 100 % of control

c1ccc(NC2CCN(C3(c4ccccc4)CCCCC3)CC2)cc1
inactive: dose: 100.0 mg/kg/injection, schedule: Q04DX002 (ip), vehicle: saline 100 % of control

O=C(Nc1ccccc1F)N(CCO)C1CCCCC1
inactive: [14] 101 % of control | [15] 106 % of control | [16] 101 % of control

CC(CCCN(CCCl)CCCl)Nc1ccnc2cc(Cl)ccc12 (centres undefined)
inactive: [1] 119 % of control | [2] 105 % of control

Oc1ccc(Cl)cc1N=Cc1ccccc1
inactive: dose: 100.0 mg/kg/injection, schedule: Q01DX001 (ip), vehicle: saline 100 % of control | dose: 200.0 mg/kg/injection, schedule: Q01DX001 (ip), vehicle: saline 105 % of control | dose: 400.0 mg/kg/injection, schedule: Q01DX001 (ip), vehicle: saline 107 % of control

CCOC(=O)c1cc[n+](C)c2ccccc12
inactive: dose: 9.37 mg/kg/injection, schedule: Q01DX009 (ip), vehicle: acetone 101 % of control | dose: 18.75 mg/kg/injection, schedule: Q01DX009 (ip), vehicle: acetone 95 % of control | dose: 37.5 mg/kg/injection, schedule: Q01DX009 (ip), vehicle: acetone 98 % of control | dose: 37.5 mg/kg/injection, schedule: Q04DX003 (ip), vehicle: acetone 92 % of control | dose: 75.0 mg/kg/injection, schedule: Q04DX003 (ip), vehicle: acetone 89 % of control | dose: 150.0 mg/kg/injection, schedule: Q01DX001 (ip), vehicle: acetone 89 % of control

ClCCN(CCCl)c1ccc(C=Nc2ccc(-c3csc(Cc4ccccc4)n3)c(Cl)c2)cc1
inactive: dose: 100.0 mg/kg/injection, schedule: Q01DX001 (ip), vehicle: carboxymethylcellulose (CMC) 93 % of control | dose: 200.0 mg/kg/injection, schedule: Q01DX001 (ip), vehicle: carboxymethylcellulose (CMC) 88 % of control | dose: 400.0 mg/kg/injection, schedule: Q01DX001 (ip), vehicle: carboxymethylcellulose (CMC) 87 % of control

CC(=O)NNC(=O)c1ccncc1
inactive: dose: 100.0 mg/kg/injection, schedule: Q01DX001 (ip), vehicle: water 93 % of control | dose: 100.0 mg/kg/injection, schedule: Q01DX009 (ip), vehicle: water 101 % of control | dose: 200.0 mg/kg/injection, schedule: Q01DX001 (ip), vehicle: water 98 % of control | dose: 200.0 mg/kg/injection, schedule: Q01DX009 (ip), vehicle: water 106 % of control and 110 % of control | dose: 400.0 mg/kg/injection, schedule: Q01DX001 (ip), vehicle: water 102 % of control | dose: 600.0 mg/kg/injection, schedule: Q01DX009 (ip), vehicle: water 122 % of control | dose: 800.0 mg/kg/injection, schedule: Q01DX009 (ip), vehicle: water 97 % of control

CC(C)C1C(C(=O)O)NC(=O)C1C(=O)O (centres undefined)
inactive: dose: 12.0 mg/kg/injection, schedule: Q01DX009 (ip), vehicle: saline with Tween-80 106 % of control | dose: 25.0 mg/kg/injection, schedule: Q01DX009 (ip), vehicle: Klucel (hydroxypropylcellulose) (HPC) 106 % of control | dose: 25.0 mg/kg/injection, schedule: Q01DX009 (ip), vehicle: saline with Tween-80 99 % of control | dose: 50.0 mg/kg/injection, schedule: Q01DX009 (ip), vehicle: saline with Tween-80 97 % of control | [14] 108 % of control | [8] 96 % of control | dose: 200.0 mg/kg/injection, schedule: Q04DX003 (ip), vehicle: Klucel (hydroxypropylcellulose) (HPC) 98 % of control | dose: 400.0 mg/kg/injection, schedule: Q04DX003 (ip), vehicle: Klucel (hydroxypropylcellulose) (HPC) 95 % of control
